TGI data for 13 compounds are collected here from PubChem BioAssay (NCI).

Among the test systems are COLO 205 colon; HOP-62 NSCLC; KM12 colon; NCI-H460 lung; RPMI-8226 leukemia; RXF 393 renal; SF-295 CNS; SF-539 CNS; SR leukemia; SW-620 colon; UACC-257 melanoma.
Common to all, as to experiment: NCI anticancer screen, dose series, 48 h

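Values below derive from 48-hour exposures of cells grown in 96-well plates, with endpoints linearly interpolated between the two concentrations bracketing the appropriate inhibition level. TGI marks complete inhibition of growth.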

Regarding `O=C(O)c1ccc(Nc2nc3ccc(C(F)(F)F)cc3nc2C(=O)O)cc1`, the TGI in the assay on COLO 205 colon, with HOP-62 NSCLC, in the assay with KM12 colon, in the assay on NCI-H460 lung, in the assay on RPMI-8226 leukemia and in the assay on RXF 393 renal was over 100 µM each time. The TGI with SF-295 CNS, in the assay with SF-539 CNS, in the assay on SR leukemia, in the assay on SW-620 colon and with UACC-257 melanoma was over 100 µM each time.

On to `Nc1n[nH]c(N)n1`, for which the TGI with COLO 205 colon is 9990 µM; with HOP-62 NSCLC it was 3550 µM; in the assay with KM12 colon it was over 10000 µM; with NCI-H460 lung, 8220 µM; in the assay on RPMI-8226 leukemia it was over 10000 µM; in the assay with RXF 393 renal, over 10000 µM. For the same compound, the TGI in the assay on SF-295 CNS is 7800 µM; with SF-539 CNS, 8860 µM; with SR leukemia, 9840 µM; in the assay with SW-620 colon, over 10000 µM; with UACC-257 melanoma it was over 9050 µM.

On to `COC1=C(OC)C(=O)C(C/C=C/c2c(Cl)nc3sccn23)=C(C)C1=O`, for which the TGI worked out at 31.9 µM in the assay on COLO 205 colon; 32.1 µM with HOP-62 NSCLC; 44.4 µM in the assay with KM12 colon; 38.6 µM with NCI-H460 lung; 27.5 µM with RPMI-8226 leukemia; 37.5 µM in the assay on RXF 393 renal. Besides, the TGI in the assay with SF-295 CNS is 21 µM; in the assay on SF-539 CNS, 31.7 µM; with SR leukemia, 66 µM; in the assay on SW-620 colon, 46 µM; in the assay with UACC-257 melanoma, 5.36 µM.

For the compound `N#CCCN(c1ccc(C=Nc2ccc(C(=O)O)cc2)cc1)S(=O)(=O)c1ccccc1`, the TGI with COLO 205 colon, with HOP-62 NSCLC, with KM12 colon, in the assay with NCI-H460 lung, in the assay on RPMI-8226 leukemia and with RXF 393 renal was over 100 µM throughout. The TGI with SF-295 CNS, in the assay on SF-539 CNS, in the assay with SR leukemia, in the assay on SW-620 colon and with UACC-257 melanoma was over 100 µM in each case.

Regarding `Cc1cc(S(=O)(=O)Nc2nnc3c(Cl)cc(C(F)(F)F)cn23)c(S)cc1Cl`, the TGI with COLO 205 colon, in the assay with HOP-62 NSCLC, with KM12 colon, in the assay on NCI-H460 lung, in the assay with RPMI-8226 leukemia and in the assay with RXF 393 renal was over 100 µM throughout. Further, the TGI in the assay on SF-295 CNS, with SF-539 CNS, in the assay with SR leukemia, in the assay with SW-620 colon and in the assay on UACC-257 melanoma was over 100 µM in each case.

`COC(=O)N1C2C(C[C@@]1(C)C(=O)OC)c1ccccc1N2S(=O)(=O)c1ccccc1` (stereo partly drawn): the TGI in the assay with COLO 205 colon, in the assay with KM12 colon, in the assay with NCI-H460 lung, with RPMI-8226 leukemia, in the assay on RXF 393 renal and in the assay with SF-295 CNS was over 100 µM each time. For the same compound, the TGI in the assay with SR leukemia, in the assay on SW-620 colon and with UACC-257 melanoma was over 100 µM each time.

For `CC(NNC(=S)N1CCCC1)c1cccnn1` (stereo not drawn), the TGI in the assay with COLO 205 colon is over 100 µM; with HOP-62 NSCLC, over 31 µM; with KM12 colon, over 100 µM; in the assay with NCI-H460 lung, over 81.5 µM; with RPMI-8226 leukemia, over 100 µM; in the assay with RXF 393 renal, 0.671 µM. Besides, the TGI was over 28.2 µM in the assay with SF-295 CNS, 4.36 µM in the assay on SF-539 CNS, over 100 µM in the assay with SR leukemia and over 100 µM in the assay on SW-620 colon.

On to `CC(=O)Oc1ccc(C)c2c1[C@H]1CC[C@]3(C)[C@@H](OC(C)=O)CC[C@H]3[C@@H]1CC2`, for which the TGI with HOP-62 NSCLC was found to be 32 µM; in the assay with KM12 colon it was 35.1 µM; in the assay on NCI-H460 lung it was 37.4 µM; in the assay with RPMI-8226 leukemia, 49.4 µM; in the assay with RXF 393 renal it was 35.4 µM; in the assay with SF-295 CNS, 48.5 µM. Also, the TGI with SF-539 CNS is 38 µM; in the assay with SR leukemia it was over 100 µM; in the assay on SW-620 colon, 34.4 µM; in the assay on UACC-257 melanoma it was 35.6 µM.

In the case of `C=C1C(=O)O[C@H]2C1C[C@H](O)/C(C)=C/CC[C@@]1(C)O[C@H]21` (stereo partly drawn), the TGI is 18.2 µM with COLO 205 colon; 91.5 µM in the assay with HOP-62 NSCLC; 30.1 µM with KM12 colon; 31.5 µM in the assay with RPMI-8226 leukemia; 31.9 µM in the assay on RXF 393 renal; 82.5 µM in the assay on SF-295 CNS. Moreover, the results for the TGI with SR leukemia, in the assay on SW-620 colon and in the assay on UACC-257 melanoma were 30.9 µM, 21.6 µM and 34.5 µM, respectively.

For the compound `CC(C)(CN1CCCCC1)C(=O)CC(SCCS(=O)(=O)O)c1ccccc1` (stereo not drawn), the TGI with COLO 205 colon is 27.6 µM; in the assay with HOP-62 NSCLC, 62.1 µM; with KM12 colon, 44.8 µM; in the assay on NCI-H460 lung, over 100 µM; in the assay with RPMI-8226 leukemia it was 46.9 µM; in the assay on RXF 393 renal, 35 µM. For the same compound, the TGI with SF-295 CNS worked out at 26.5 µM; with SF-539 CNS it was 60.3 µM; with SR leukemia it was 13.9 µM; in the assay on SW-620 colon it was 28.8 µM.

As to `CCOC(=O)CN1C(=O)c2c(NC(=O)C(=O)O)cccc2S1(=O)=O`, the TGI with COLO 205 colon, with HOP-62 NSCLC, in the assay on KM12 colon, in the assay with NCI-H460 lung, in the assay with RPMI-8226 leukemia and with RXF 393 renal was over 100 µM in each case. For the same compound, the TGI in the assay with SF-295 CNS, with SR leukemia, with SW-620 colon and in the assay on UACC-257 melanoma was over 100 µM throughout.

On to `O=C(O)c1ccc(Nc2nc3ccc(C(F)(F)F)cc3nc2-c2ccccc2)cc1`, for which the TGI is over 100 µM in the assay on HOP-62 NSCLC; over 10 µM with KM12 colon; over 100 µM in the assay on NCI-H460 lung; over 100 µM in the assay on RPMI-8226 leukemia; over 100 µM in the assay on RXF 393 renal; over 100 µM in the assay with SF-295 CNS. In addition, the TGI was 90.8 µM in the assay on SF-539 CNS, over 100 µM in the assay with SR leukemia, over 100 µM in the assay with SW-620 colon and over 100 µM with UACC-257 melanoma.

For `O=c1[nH]nc(-c2ccccc2)n1-n1cccc1`, the TGI in the assay with COLO 205 colon, in the assay on HOP-62 NSCLC, in the assay on KM12 colon, in the assay with NCI-H460 lung, in the assay with RPMI-8226 leukemia and in the assay with RXF 393 renal was over 100 µM each time. Besides, the TGI with SF-295 CNS is over 100 µM; in the assay on SR leukemia, 97 µM; in the assay with SW-620 colon it was over 100 µM; with UACC-257 melanoma, over 100 µM.
